Experiments:
[1] = system: T. cruzi Tulahuen trypomastigotes; assay: T. cruzi trypomastigote assay (Cell Titer-Glo viability, ATP luminescence); assay type: cell-based, Trypanosoma cruzi; details: for Trypomastigotes pIC50 48 hours: 48 hours incubation; for Trypomastigotes pIC50 48 hours / Trypomastigotes pIC50 72 hours: pIC50 = -log10 IC50 in molar units; for Trypomastigotes pIC50 72 hours: 72 hours incubation; for 72 pIC50 (trypomastigotes, raw data of Fig 1D): 72 hours, plotted values, censored values given without sign; for 48 pIC50 / 72 pIC50: trypomastigote assay; for 48 pIC50: 48 h; for 72 pIC50: 72 h
How it was run: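 Tulahuen trypomastigotes from infected LLC-MK2 culture supernatants (days 5–8) plated at 5 × 10^4 per well in DMEM/2% FBS with compound at 5 μM single-shot final or in dose response. Viability by CellTiter-Glo ATP luminescence after 10 min at room temperature, normalised to no-cell (100%) and DMSO (0%) controls.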

[2] = system: T. cruzi intracellular amastigotes in H9c2 cells; assay: Rate-of-Kill (RoK) high-content imaging assay, amastigotes per cell (AM/CELL) and curve descriptors; assay type: cell-based, Trypanosoma cruzi; parameters: key to ME_24h / ME_48h / ME_72h: % reduction in parasite burden (cidal response); t50pct_MCC50 / t50pct_Cmax: unit not given here; details: for ME_24h: 24h; for ME_48h: 48h; for ME_72h: 72h; for tlag_Cmax / t50pct_Cmax: at Cmax; for ME_24h (%): maximum effect at 24 h; for ME_24h (%) / ME_48h (%) / ME_72h (%): RoK assay; for ME_48h (%): maximum effect at 48 h; for ME_72h (%): maximum effect at 72 h; for ME 24h (maximum effect at 24 hours, intracellular amastigotes): maximum percentage of parasite burden reduction reached by any concentration
How it was run: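 H9c2 cardiomyocytes infected with T. cruzi trypomastigotes (MOI 8, 18 h), then compounds tested at 5 μM single shot or 11-point 1/3 dilution from 50 μM. DRAQ5-stained nuclei imaged over a time course. Amastigotes per cell normalised to infected cells at 4 h (0%) and non-infected cells (100%).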

| Structure (SMILES) | Trypomastigotes pIC50 48 hours [1] | Trypomastigotes pIC50 72 hours [1] | 72 pIC50 (trypomastigotes, raw data of Fig 1D) [1] | 48 pIC50 ([1]; figure 1A) | 72 pIC50 ([1]; figure 1A) | 72 pIC50 ([1]; figure 1B) | ME_24h ([2]; figure 5) | ME_48h ([2]; figure 5) | ME_72h ([2]; figure 5) | MCCE ([2]; RoK curve descriptor) [µM] | tlag_Cmax [2] [h] | t50pct_Cmax ([2]; figure 5) | tlag_Cmax ([2]; figure 5) | t50pct_MCC50 ([2]; at MCC50, figure 5) | tlag_MCC50 ([2]; at MCC50, figure 5) | MCCE ([2]; figure 5) | ME_24h (%) [2] [%] | ME_48h (%) [2] [%] | ME_72h (%) [2] [%] | ME 24h (maximum effect at 24 hours, intracellular amastigotes) [2] [%] | also measured |
| --- | --- | --- | --- | --- | --- | --- | --- | --- | --- | --- | --- | --- | --- | --- | --- | --- | --- | --- | --- | --- | --- |
| CC(C)Nc1nccc(-c2c(-c3ccc(F)cc3)ncn2C2CCOCC2)n1 [TCMDC-143379] | < 4.3 | < 4.3 | < 4.3 | < 4.3 | < 4.3 | < 4.3 | -22.482 | -3.3846 | 36.7081 | 0.2 | 24.0 | 72 | 24 | 72 | 72 | 0.2058 | -22.5 | -3.4 | 36.7 | -22.482 | AM/CELL NORM ([2]; Time 4, sheet figure 4 A): -6.859; AM/CELL NORM ([2]; Time 24, sheet figure 4 A): -37.6965; AM/CELL NORM ([2]; Time 48, sheet figure 4 A): -3.3846; AM/CELL NORM ([2]; Time 72, sheet figure 4 A): 36.7081; MCC50 ([2]; figure 5): 50 µM |
| O=C(N1CCc2ccccc2CC1)C1(C(=O)N2CCC(n3c(=O)[nH]c4ncccc43)CC2)CC1.O=C(O)C(F)(F)F [TCMDC-143381] | < 4.3 | < 4.3 | < 4.3 | < 4.3 | < 4.3 | < 4.3 | -241.612 | -106.513 | 38.7809 | 1.9 | 24.0 | 72 | 24 | 72 | 72 | 1.852 | -241.6 | -106.5 | 38.8 | -241.612 | AM/CELL NORM ([2]; Time 4, sheet figure 4 A): 8.613; AM/CELL NORM ([2]; Time 24, sheet figure 4 A): -274.305; AM/CELL NORM ([2]; Time 48, sheet figure 4 A): -155.332; AM/CELL NORM ([2]; Time 72, sheet figure 4 A): 34.067; MCC50 ([2]; figure 5): 50 µM |
| COc1ccc2ncc(=O)n(CCN3CCOC(CNCc4ccc(C(F)(F)F)cc4F)C3)c2n1 (stereo not drawn) [TCMDC-143384] | < 4.3 | < 4.3 | < 4.3 | < 4.3 | < 4.3 | < 4.3 | -27.6403 | -15.9254 | -18.8553 | 0.6 | 24.0 | 72 | 24 | 72 | 72 | 0.6173 | -27.6 | -15.9 | -18.9 | -27.6403 | AM/CELL NORM ([2]; Time 4, sheet figure 4 A): -15.3138; AM/CELL NORM ([2]; Time 24, sheet figure 4 A): -27.6403; AM/CELL NORM ([2]; Time 48, sheet figure 4 A): -15.9254; AM/CELL NORM ([2]; Time 72, sheet figure 4 A): -18.8553; MCC50 ([2]; figure 5): 50 µM |
| CS(=O)(=O)c1cccc(CNC(=O)c2cncc(N3CCN(c4ccc(F)cc4)CC3)c2)c1.O=C(O)C(F)(F)F.O=C(O)C(F)(F)F.O=C(O)C(F)(F)F [TCMDC-143385] | < 4.3 | < 4.3 | < 4.3 | < 4.3 | < 4.3 | < 4.3 | -140.527 | 14.5657 | 58.9567 | 8.6 | 24.0 | 72 | 24 | 72 | 48 | 8.642 | -140.5 | 14.6 | 59.0 | -76.6949 | MCC50 ([2]; RoK curve descriptor): 1.9 µM; AM/CELL NORM ([2]; Time 4, sheet figure 4 A): -2.309; AM/CELL NORM ([2]; Time 24, sheet figure 4 A): -204.359; AM/CELL NORM ([2]; Time 48, sheet figure 4 A): 18.8519; AM/CELL NORM ([2]; Time 72, sheet figure 4 A): 47.2855; t50%_MCC50 ([2]; at MCC50): 72.0 h; tlag_MCC50 ([2]; at MCC50): 24.0 h; MCC50 ([2]; figure 5, in µM): 25.9259 |
| O[C@H]1CC[C@H](Nc2nccc(-c3sc(C4CCOCC4)nc3-c3ccc(F)c(F)c3)n2)CC1 [TCMDC-143387] | 4.5 | < 4.3 | – | – | – | – | -7.952 | -1.621 | 23.2073 | 0.07 | 24.0 | 72 | 24 | 72 | 72 | 0.06859 | -8.0 | -1.6 | 23.2 | -7.952 | AM/CELL NORM ([2]; Time 4, figure 4 A): 2.207; AM/CELL NORM ([2]; Time 24, figure 4 A): -7.952; AM/CELL NORM ([2]; Time 48, figure 4 A): -3.462; AM/CELL NORM ([2]; Time 72, figure 4 A): 23.2073; MCC50 ([2]; figure 5): 50 µM |
| O=C(O)C(F)(F)F.O=c1oc2ccccc2n1C1CCN(Cc2ccccc2-c2cccnc2)CC1 [TCMDC-143389] | < 4.3 | < 4.3 | < 4.3 | < 4.3 | < 4.3 | < 4.3 | -205.37 | -40.6003 | 54.0373 | 0.2 | 24.0 | 72 | 24 | 72 | 24 | 0.2058 | -205.4 | -40.6 | 54.0 | -205.37 | MCC50 ([2]; RoK curve descriptor): 5.6 µM; AM/CELL NORM ([2]; Time 4, sheet figure 4 A): -7.014; AM/CELL NORM ([2]; Time 24, sheet figure 4 A): -205.37; AM/CELL NORM ([2]; Time 48, sheet figure 4 A): -40.6003; AM/CELL NORM ([2]; Time 72, sheet figure 4 A): 17.0901; t50%_MCC50 ([2]; at MCC50): 72.0 h; tlag_MCC50 ([2]; at MCC50): 24.0 h; MCC50 ([2]; figure 5, in µM): 5.556 |
| Cc1c(C(C)NC(=O)Nc2cccc(Cl)c2)sc2ncnn12 (stereo not drawn) [TCMDC-143405] | < 4.3 | < 4.3 | < 4.3 | < 4.3 | < 4.3 | < 4.3 | -289.196 | -32.4517 | 41.1216 | 0.07 | 24.0 | 72 | 24 | 72 | 72 | 0.06859 | -289.2 | -32.5 | 41.1 | -289.196 | AM/CELL NORM ([2]; Time 4, sheet figure 4 A): -4.394; AM/CELL NORM ([2]; Time 24, sheet figure 4 A): -289.196; AM/CELL NORM ([2]; Time 48, sheet figure 4 A): -32.4517; AM/CELL NORM ([2]; Time 72, sheet figure 4 A): -0.1706; MCC50 ([2]; figure 5): 50 µM |
